Measured values published in patent US20220298115A1, “SMALL MOLECULE INHIBITORS OF ACETYL COENZYME A SYNTHETASE SHORT CHAIN 2 (ACSS2)” (Curadev Pharma Pvt. Ltd., priority 2019, published 2022).

Key:
human ACSS2 = target: T1, human ACSS2 (Homo sapiens, UniProt Q9NR19); assay: ACSS2 enzyme assay (acetyl-CoA formation, LC-MS/MS); type: biochemical; conditions: cytosolic fraction of BT474 cells as ACSS2 source; 100 μM acetate, CoA and ATP; 2 h at 25° C.; read-out: Enzyme Activity (IC50 range)
T1 construct: The cytosolic fraction of BT474 cells was used as a source of the ACSS2 enzyme; endogenous in cells; host or cells: BT474 cells (cytosolic fraction)
Protocol: Novel compounds were screened in a human ACSS2 enzyme assay. Briefly, the ACSS2 enzyme reaction was monitored by directly measuring acetyl-CoA formation. The cytosolic fraction of BT474 cells was used as a source of the ACSS2 enzyme. A short protocol for this assay is provided below.
Preparation of Cytosolic Fraction from BT474 Cells
9×10^6 cells were harvested by trypsinization followed by centrifugation. The cell pellet was washed with PBS and dissolved in 500 μl STM buffer (50 mM Tris-HCl pH7.4, 250 mM sucrose, 5 mM MgCl2 & protease-phosphatase inhibitor cocktail) and homogenized at 600-1000 rpm for 1 min. on ice followed by incubation for 30 min. with intermittent vortexing. Supernatant was collected by centrifugation at 800 g for 15 min. at 4° C. Cytosolic fraction was prepared by further centrifugation of the supernatant at 12000 g for 15 min. at 4° C. Total protein content of the cytosolic fraction was estimated & diluted to 1 mg/ml concentration in storage buffer (25 mM Tris-HCl pH7.4, 1 mM MgCl2, 1 mM DTT & 10% glycerol) and stored at −80° C. for further use.
100 ng of cytosolic fraction in buffer composed of 25 mM Tris-HCl pH7.4 1 mM MgCl2, 1 mM DTT & 0.05% Tween20 was preincubated with desired concentrations of novel compounds for 5 min. maintaining 1% DMSO. Reaction was started with addition of substrate mix (100 μM of acetate, CoA and ATP) and incubated for 2 h at 25° C. with constant shaking at 500 rpm. Post incubation the reaction was terminated by addition of 10% TCA followed by 5 fold dilution in water. The reaction mixture was centrifuged at 800 g for 10 min. at RT and acetyl-CoA detected in supernatant by LC-MS/MS (QTrap5500 ABSCIEX).

[1] = tested on: [14C] acetate incorporation in macromolecules, BT474 cells; assay: Cell based [14C] acetate incorporation assay; conditions: Homo sapiens, BT-474, 3 h at 37° C., read-out: Cellular Activity (IC50 range)
Protocol: Cell Based [^14C] Acetate Incorporation Assay
In the cellular assay, ACSS2 inhibitors were screened against [^14C] acetate incorporation in macromolecules. 4×10^4 BT474 cells were plated in 96 well plates in growth media composed of DMEM & 10% FBS and incubated overnight in a 37° C., 5% CO2 incubator. The following day the cells were washed in HBSS and the assay was performed in 100 μl of HBSS. 50 μl of 4× compound in 4% DMSO was added to the cells and preincubated for 10 min. at 37° C. 50 μl of acetate solution (0.1 μCi ^14C acetate+10 μM ^12C acetate) was added to each well of the plate and incubated for 3 h in a 37° C., 5% CO2 incubator. Following incubation, cells were harvested with water on polyethylene imine (PEI) presoaked GF/C filtermat, air dried and radioactive count were recorded in Trilux micro beta Liquid Scintillation Counter (PerkinElmer).

T1 sequence (Q9NR19 whole entry): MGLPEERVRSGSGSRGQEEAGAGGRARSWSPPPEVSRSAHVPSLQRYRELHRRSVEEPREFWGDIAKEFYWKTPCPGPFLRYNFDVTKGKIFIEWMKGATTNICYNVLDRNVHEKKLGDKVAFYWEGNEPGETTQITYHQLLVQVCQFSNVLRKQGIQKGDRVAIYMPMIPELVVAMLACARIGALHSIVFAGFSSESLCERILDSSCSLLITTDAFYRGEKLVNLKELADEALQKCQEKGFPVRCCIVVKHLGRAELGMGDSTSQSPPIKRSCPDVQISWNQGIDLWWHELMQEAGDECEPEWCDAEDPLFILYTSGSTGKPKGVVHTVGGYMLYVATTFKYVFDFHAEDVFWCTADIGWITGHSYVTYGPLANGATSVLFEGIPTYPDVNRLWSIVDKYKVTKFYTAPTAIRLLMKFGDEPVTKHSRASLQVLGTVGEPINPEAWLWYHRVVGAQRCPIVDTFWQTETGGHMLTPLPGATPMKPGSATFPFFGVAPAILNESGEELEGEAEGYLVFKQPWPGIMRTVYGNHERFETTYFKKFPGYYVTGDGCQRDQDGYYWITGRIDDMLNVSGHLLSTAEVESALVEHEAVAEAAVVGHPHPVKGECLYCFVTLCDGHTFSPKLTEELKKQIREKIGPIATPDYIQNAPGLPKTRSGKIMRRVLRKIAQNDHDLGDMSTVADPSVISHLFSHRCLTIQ

| Compound | IC50 (human ACSS2) [nM] | IC50 [1] [nM] |
| --- | --- | --- |
| CCC(O)CNC(=O)Nc1ccc2nc(/C=C/c3ccccc3)c(-c3ccccc3)cc2c1 (stereo not shown) [Example 50, (E)-1-(2-hydroxybutyl)-3-(3-phenyl-2-styrylquinolin-6-yl)urea] | ≤ 10000 | > 10000 |
| CCC(O)CNC(=O)Nc1ccc2nc(-c3ccc(-c4ccccc4)cc3)c(-c3ccccc3)cc2c1 (stereo not shown) [Example 55, 1-(2-([1,1′-biphenyl]-4-yl)-3-phenylquinolin-6-yl)-3-(2-hydroxybutyl) urea] | ≤ 10000 | > 10000 |
| CCC(O)CNC(=O)Nc1ccc2nc(CCc3ccccc3)c(-c3ccccc3)cc2c1 (stereo not shown) [Example 56, 1-(2-hydroxybutyl)-3-(2-phenethyl-3-phenylquinolin-6-yl)urea] | ≤ 10000 | ≤ 10000 |
| CCC(O)CNC(=O)Nc1ccc2nc(-c3ccccc3OCC(C)C)c(-c3ccccc3)cc2c1 (stereo not shown) [Example 59, 1-(2-hydroxybutyl)-3-(2-(2-isobutoxyphe-nyl)-3-phenylquinolin-6-yl)urea] | < 100 | < 100 |
| CC[C@H](O)CNC(=O)Nc1ccc2nc(-c3ccccc3)c(-c3ccccc3F)cc2c1 [Example 67, (S)-1-(3-(2-fluorophenyl)-2-phenylquinolin-6-yl)-3-(2-hydroxybutyl) urea] | < 100 | < 100 |
| CCC(O)CNC(=O)Nc1ccc2nc(C)c(C)c(C(N)=O)c2c1 (stereo not shown) [Example 69, 6-(3-(2-hydroxybutyl)ureido)-2,3-dimethylquino-line-4-carboxamide] | ≤ 10000 | > 10000 |
| CCC(O)CNC(=O)Nc1ccc2nc(-c3ccccc3)c(-c3ccccc3)c(C#N)c2c1 (stereo not shown) [Example 70, 1-(4-cyano-2,3-diphenylquino-lin-6-yl)-3-(2-hydroxybutyl) urea] | < 100 | < 100 |
| CCC(O)CNC(=O)Nc1ccc2ncc(-c3ccccc3)c(C(N)=O)c2c1 (stereo not shown) [Example 71, 6-(3-(2-hydroxybutyl)ureido)-3-phenylquinoline-4-carboxamide] | ≤ 1000 | > 10000 |
| CC[C@@H](O)CNC(=O)Nc1ccc2nc(C)c(-c3ccccc3)cc2c1 [Example 72, (R)-1-(2-Hydroxybutyl)-3-(2-methyl-3-phenylquinolin-6-yl)urea] | < 100 | < 100 |
| CCC(O)CNC(=O)Nc1ccc2nc(C)c(-c3ccccc3F)c(C(N)=O)c2c1 (stereo not shown) [Example 73, 3-(2-fluorophenyl)-6-(3-(2-hydroxybutyl)ureido)-2-methylquinoline-4-carboxamide] | < 100 | ≤ 1000 |
| CCC(O)CNC(=O)Nc1ccc2nc(C)cc(C(N)=O)c2c1 (stereo not shown) [Example 74, 6-(3-(2-hydroxybutyl)ureido)-2-methylquinoline-4-carboxamide] | ≤ 10000 | > 10000 |
| CCC(O)CNC(=O)Nc1ccc2nc(C)c(-c3ccccc3F)cc2c1 (stereo not shown) [Example 75, 1-(3-(2-fluorophenyl)-2-methylquinolin-6-yl)-3-(2-hydroxybutyl) urea] | < 100 | < 100 |
| CCCCNC(=O)Nc1ccc2nc(C)c(-c3ccccc3)cc2c1 [Example 76, 1-butyl-3-(2-methyl-3-phenylquinolin-6-yl)urea] | ≤ 1000 | < 100 |
| CCC(CNC(=O)Nc1ccc2nc(C)c(-c3ccccc3)cc2c1)OC (stereo not shown) [Example 77, 1-(2-methoxybutyl)-3-(2-methyl-3-phenylquinolin-6-yl)urea] | < 100 | ≤ 1000 |
| COCCNC(=O)Nc1ccc2nc(C)c(-c3ccccc3)cc2c1 [Example 78, 1-(2-methoxyethyl)-3-(2-methyl-3-phenylquinolin-6-yl)urea] | ≤ 1000 | ≤ 1000 |
| CCC(O)CNC(=O)Nc1ccc2nc(C)c(-c3cccnc3)cc2c1 (stereo not shown) [Example 79, 1-(2-hydroxybutyl)-3-(2-methyl-3-(pyridin-3-yl)quinolin-6-yl)urea] | < 100 | ≤ 1000 |

More lines, now with the values ahead:

| IC50 (human ACSS2) [nM] | IC50 [1] [nM] | Compound |
| --- | --- | --- |
| < 100 | < 100 | CCC(O)CNC(=O)Nc1ccc2nc(-c3ccc(F)cc3)c(-c3ccccc3F)cc2c1 (stereo not shown) [Example 47, 1-(3-(2-fluorophenyl)-2-(4-fluorophenyl)quinolin-6-yl)-3-(2-hydroxybutyl) urea] |
| < 100 | < 100 | CCC(O)CNC(=O)Nc1ccc2nc(-c3ccccc3)c(-c3ccccc3)c(C(=O)OC)c2c1 (stereo not shown) [Example 48, methyl 6-(3-(2-hydroxybutyl)ureido)-2,3-diphenylquino-line-4-carboxylate] |
| < 100 | < 100 | CCC(O)CNC(=O)Nc1ccc2nc(-c3ccccc3)c(-c3ccccc3)c(C(N)=O)c2c1 (stereo not shown) [Example 49, 6-(3-(2-hydroxybutyl)ureido)-2,3-diphenylquino-line-4-carboxamide] |
| < 100 | < 100 | CCC(O)CNC(=O)Nc1ccc2nc(-c3ccccc3NC(C)=O)c(-c3ccccc3F)cc2c1 (stereo not shown) [Example 51, N-(2-(3-(2-fluorophenyl)-6-(3-(2-hydroxybutyl)ureido)quinolin-2-yl)phenyl)acet-amide] |
| < 100 | < 100 | CCC(O)CNC(=O)Nc1ccc2nc(C)c(-c3ccccc3)cc2c1 (stereo not shown) [Example 52, 1-(2-hydroxybutyl)-3-(2-methyl-3-phenylquinolin-6-yl)urea] |
| < 100 | ≤ 1000 | CCC(O)CNC(=O)Nc1ccc2nc(-c3ccccc3C#N)c(-c3ccccc3F)cc2c1 (stereo not shown) [Example 53, 1-(2-(2-cyanophenyl)-3-(2-fluorophenyl)quinolin-6-yl)-3-(2-hydroxybutyl) urea] |
| < 100 | < 100 | CCC(O)CNC(=O)Nc1ccc2nc(-c3ccccc3N)c(-c3ccccc3F)cc2c1 (stereo not shown) [Example 54, 1-(2-(2-aminophenyl)-3-(2-fluorophenyl)quinolin-6-yl)-3-(2-hydroxybutyl) urea] |
| < 100 | < 100 | CC[C@@H](O)CNC(=O)Nc1ccc2nc(-c3ccccc3)c(-c3ccccc3)c(C(N)=O)c2c1 [Example 57, (R)-6-(3-(2-hydroxybutyl)ureido)-2,3-diphenylquino-line-4-carboxamide] |
| < 100 | < 100 | CCOc1ccccc1-c1nc2ccc(NC(=O)NCC(O)CC)cc2cc1-c1ccccc1 (stereo not shown) [Example 58, 1-(2-(2-ethoxyphenyl)-3-phenylquinolin-6-yl)-3-(2-hydroxybutyl) urea] |
| < 100 | < 100 | C#Cc1nc2ccc(NC(=O)NCC(O)CC)cc2cc1-c1ccccc1 (stereo not shown) [Example 60, 1-(2-ethynyl-3-phenylquinolin-6-yl)-3-(2-hydroxybutyl) urea] |
| < 100 | < 100 | CCc1nc2ccc(NC(=O)NCC(O)CC)cc2cc1-c1ccccc1 (stereo not shown) [Example 61, 1-(2-ethyl-3-phenylquinolin-6-yl)-3-(2-hydroxybutyl) urea] |
| < 100 | < 100 | CCC(O)CNC(=O)Nc1ccc2nc(-c3ccccc3)c(-c3ccccc3)c(C(=O)NC)c2c1 (stereo not shown) [Example 62, 6-(3-(2-hydroxybutyl)ureido)-N-methyl-2,3-diphenylquino-line-4-carboxamide] |
| < 100 | < 100 | CCC(O)CNC(=O)Nc1ccc2nc(-c3ccccc3)c(-c3ccccc3)c(C(=O)N(C)C)c2c1 (stereo not shown) [Example 63, 6-(3-(2-hydroxybutyl)ureido)-N,N-dimethyl-2,3-diphenylquino-line-4-carboxamide] |
| < 100 | < 100 | CCC(O)CNC(=O)Nc1ccc2nc(-c3ccccc3)c(-c3ccccc3)c(C(=O)NC3CC3)c2c1 (stereo not shown) [Example 64, N-cyclopropyl-6-(3-(2-hydroxybutyl)ureido)-2,3-diphenylquino-line-4-carboxamide] |
| < 100 | ≤ 10000 | CCC(O)CNC(=O)Nc1ccc2nc(-c3ccccc3)c(-c3ccccc3)c(C(=O)O)c2c1 (stereo not shown) [Example 65, 6-(3-(2-hydroxybutyl)ureido)-2,3-diphenylquino-line-4-carboxylic acid] |
| < 100 | ≤ 1000 | CCC(O)CNC(=O)Nc1ccc2nc(C)c(-c3ccccc3)c(C(N)=O)c2c1 (stereo not shown) [Example 66, 6-(3-(2-hydroxybutyl)ureido)-2-methyl-3-phenylquinoline-4-carboxamide] |
